How the values were obtained:
Typhlodromus pyri = assay: LR50; higher = less toxic; details: not reported; mortality
Aphidius rhopalosiphi = assay: LR50; higher = less toxic; details: not reported; mortality
Neomysis kadiakensis = details: chronic/long-term; duration: 28 days; mortality
Apis mellifera = details: acute, mortality
Folsomia candida = details: chronic/long-term; duration: 28 days
Hypoaspis aculeifer = details: chronic/long-term; duration: 28 days
Pimephales promelas = details: mortality
Oryctolagus sp. = details: reproduction developmental; body weight
Rattus norvegicus = details: for NOAEL: body weight
Bibionidae = details: chronic/long-term; duration: 28 days
Daphnia magna = details: chronic/long-term; duration: 21 days; reproduction

O=C1C=C(N(Cc2ccc(Cl)nc2)CC(F)F)CO1 [Flupyradifurone]
LR50 (Typhlodromus pyri): 17 g/ha | LR50 (Aphidius rhopalosiphi): < 0.5 g/ha | NOEC (Neomysis kadiakensis): 0.0132 mg/L | LC50 (Colinus virginianus; acute, oral, diet, mortality): > 470 mg/kg-day | LD50 (Colinus virginianus; acute, oral, mortality): 232 mg/kg-day | NOAEL (Colinus virginianus; reproduction developmental): 14 mg/kg-day | LD50 (Apis mellifera; dermal): 123 µg/piece | LD50 (Apis mellifera; oral, unspecified): 1.2 µg/piece | NOEC (Folsomia candida): 1.44 mg/kg | NOEC (Hypoaspis aculeifer): 170 mg/kg | LC50 (Pimephales promelas; acute, duration: 96 hours): > 70.5 mg/L | NOEC (Pimephales promelas; chronic/long-term, duration: 35 days): 4.41 mg/L | NOAEL (Oryctolagus sp.): 15 mg/kg-day | LD50 (Rattus norvegicus; acute, mortality): 1610 mg/kg-day | NOAEL (Rattus norvegicus; chronic): 6.4 mg/kg-day | NOAEL (Rattus norvegicus; reproduction developmental): 6.4 mg/kg-day | NOEC (Bibionidae): 0.00681 mg/L | NOEC (Daphnia magna): 3.2 mg/L | LC50 (Tagia sp.; acute, duration: 14 days, mortality): 186 mg/kg | NOEC (Tagia sp.; chronic/long-term, duration: 56 days): 1.5 mg/kg

From EPA's ToxValDB 9.5 (doi:10.2903/j.efsa.2015.4020)
